Test results taken from patent US20040116293A1, “Enhanced herbicide composition” (priority 2002, published 2004).

Experiments:
Xanthi-nc tobacco [1] = assay: Potentiation rating of Aatrex Nine-O (atrazine) herbicidal activity on Xanthi-nc tobacco relative to equimolar salicylic acid; assay type: in vivo, Nicotiana tabacum (tobacco); parameters: Potentiation Rating: key: 0 = no potentiation; 1 = potentiation less than equimolar SA; 2 = potentiation statistically equal to equimolar SA; 3 = potentiation statistically greater than equimolar SA; details: for Potentiation of the herbicidal activity of atrazine compared with salicylic acid (in words): tobacco
Excerpt: (§1) In all examples, deionized ultra-pure water was used in preparing solutions. Spray solutions were used as soon as possible after mixing.
(§2) In all herbicide applications, plants were sprayed with a sufficient volume to insure good coverage, to the point of runoff of the spray solution. […] For all treatments containing both an herbicide and a salicylate or SAR inducer, these materials were mixed and applied in a single spray solution (commonly known as a tank mix). After spraying, plants were moved to the greenhouse and arranged in randomized complete blocks. Plants were evaluated for herbicidal effects (phytotoxicity) after spraying by assessing damage according to percent leaf area affected. All the data were subject to an analysis of variance, and the mean separations were determined with Duncan's multiple range test at α=0.05.

Xanthi-nc tobacco [2] = assay: Herbicidal activity (phytotoxicity, percent leaf area affected) of foliar sprays on Xanthi-nc tobacco; assay type: in vivo, Nicotiana tabacum (tobacco); details: for Phytotoxicity at 4 days: percent leaf area affected: alone or + NaSA 800 ppm
Excerpt: as §1, §2

[3] = salicylic acid or SAR inducers with Aatrex Nine-O (atrazine), compared with equimolar SA
[4] = salicylates, picolinates and benzoates at 2 mM with Aatrex Nine-O (atrazine)
[5] = acibenzolar-S-methyl 935 ppm, alone or + atrazine (Aatrex Nine-O) 100 ppm
[6] = atrazine (Aatrex Nine-O) 100 ppm, NaSA 800 ppm, acibenzolar-S-methyl 187 ppm, alone or tank-mixed as labelled

Structure (SMILES) | Potentiation of the herbicidal activity of atrazine compared with salicylic acid (in words) (Xanthi-nc tobacco [1]) | Potentiation Rating (Xanthi-nc tobacco [1]; [4]) | also measured
O=C(O)c1cc(Cl)nc(Cl)c1 [2,6-Dichloroisonicotinic acid] | greater potentiation than equimolar salicylic acid | – | Potentiation Rating (Xanthi-nc tobacco [1]; [3]): 3
O=C(O)c1cc(Br)cc(Br)c1O [3,5-Dibromosalicylic acid] | as active as salicylic acid | 2 | –
O=C(O)c1cc(Cl)cc(Cl)c1O [3,5-Dichlorosalicylic acid] | greater potentiation than equimolar salicylic acid | – | Potentiation Rating (Xanthi-nc tobacco [1]; [3]): 3
O=C(O)c1cc(F)cc(F)c1O [3,5-Difluorosalicylic acid] | greater potentiation than salicylic acid | 3 | –
O=C(O)c1cccc(Cl)c1O [3-Chlorosalicylic acid] | greater potentiation than salicylic acid | 3 | –
O=C(O)c1cccc(F)c1O [3-Fluorosalicylic acid] | greater potentiation than salicylic acid | 3 | –
O=C(O)c1ncccc1O [3-Hydroxypicolinic acid] | – | 3 | –
COc1cccc(C(=O)O)c1O [3-Methoxysalicylic acid] | as active as salicylic acid | 2 | –
Cc1cccc(C(=O)O)c1O [3-Methylsalicylic acid] | no potentiation | 0 | –
O=C(O)c1cccc([N+](=O)[O-])c1O [3-Nitrosalicylic acid] | as active as salicylic acid | 2 | –
O=C(O)c1ccc(Cl)cc1O [4-Chlorosalicylic acid] | greater potentiation than equimolar salicylic acid | – | Potentiation Rating (Xanthi-nc tobacco [1]; [3]): 3
O=C(O)c1ccc(F)cc1O [4-Fluorosalicylic acid] | greater potentiation than salicylic acid | 3 | –
Cc1ccc(C(=O)O)c(O)c1 [4-Methylsalicylic acid] | no potentiation | 0 | –
O=C(O)c1cc(Br)ccc1O [5-Bromosalicylic acid] | as active as salicylic acid | 2 | –
O=C(O)c1cc(Cl)ccc1O [5-Chlorosalicylic acid] | greater potentiation than equimolar salicylic acid | – | Potentiation Rating (Xanthi-nc tobacco [1]; [3]): 3
O=C(O)c1cc(F)ccc1O [5-Fluorosalicylic acid] | greater potentiation than salicylic acid | 3 | –
Cc1ccc(O)c(C(=O)O)c1 [5-Methylsalicylic acid] | – | 0 | –
O=C(O)c1cc([N+](=O)[O-])ccc1O [5-Nitrosalicylic acid] | as active as salicylic acid | 2 | –
O=C(O)c1c(O)cccc1F [6-Fluorosalicylic acid] | as active as salicylic acid | 2 | –
Cc1cccc(O)c1C(=O)O [6-Methylsalicylic acid] | no potentiation | 0 | –
CSC(=O)c1cccc2nnsc12 [Acibenzolar-S-methyl, 1,2,3-benzothiadiazole-7-carbothioic acid S-methyl ester] | greater potentiation than equimolar salicylic acid | – | Potentiation Rating (Xanthi-nc tobacco [1]; [3]): 3; Phytotoxicity at 2 days: percent leaf area affected (Xanthi-nc tobacco [2]; [5]): 0 A percent; Phytotoxicity at 2 days: percent leaf area affected (Xanthi-nc tobacco [2]; [6]): 0 A percent; Phytotoxicity at 3 days: percent leaf area affected (Xanthi-nc tobacco [2]; [5]): 0 A percent; Phytotoxicity at 3 days: percent leaf area affected (Xanthi-nc tobacco [2]; [6]): 0 A percent; Phytotoxicity at 7 days: percent leaf area affected (Xanthi-nc tobacco [2]; [5]): 0.6 A percent; Phytotoxicity at 7 days: percent leaf area affected (Xanthi-nc tobacco [2]; [6]): 0 A percent; Effect of Actigard on atrazine activity (in words) (Xanthi-nc tobacco [2]; tobacco): dose-dependent acceleration of atrazine activity
CC(C)N1C(=O)c2ccccc2NS1(=O)=O [Bentazon, 3-(1-methylethyl)-1H-2,1,3-benzothiadiazin-4(3H)-one 2,2-dioxide] | – | – | Phytotoxicity at 4 days: percent leaf area affected (Xanthi-nc tobacco [2]; bentazon (Basagran) 100 ppm): 10 A percent; Phytotoxicity at 4 days: percent leaf area affected (Xanthi-nc tobacco [2]; bentazon (Basagran) 250 ppm): 32.5 B percent; Phytotoxicity at 4 days: percent leaf area affected (Xanthi-nc tobacco [2]; bentazon (Basagran) 500 ppm): 72.5 CD percent
C=CCOC1=NS(=O)(=O)c2ccccc21 [Probenazole] | greater potentiation than equimolar salicylic acid | – | –
O=C(O)c1ccccc1O [Salicylic acid, salicylic acid] | – | 2 | Potentiation Rating (Xanthi-nc tobacco [1]; [3]): 2
O=C([O-])c1ccccc1.[Na+] [Sodium benzoate] | no potentiation | 0 | –
CCOC(=O)C(C)OC(=O)c1cc(Oc2ccc(C(F)(F)F)cc2Cl)ccc1[N+](=O)[O-] (centres unmarked) [lactofen] | greater potentiation than equimolar salicylic acid | – | –
